Experimental findings from ChEMBL document CHEMBL1201862, “PubChem BioAssay data set” (2004) are described below.

The source made the active and inactive calls.

In test [1] the target is Cytochrome P450 2D6 (Homo sapiens, UniProt P10635). The test can be described thus: qHTS Assay for Inhibitors and Substrates of Cytochrome P450 2D6. [Related pubchem assays: 410 ]. It is filed as ADME. To be noted: read-out: Potency.
Test [2] deals with Streptococcus. The test can be described thus: Group A Streptococcus viability loss, dose response, counter-screen for streptokinase expression inhibitor project, luminescence, BacTiterGlo (AID 1915).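 Also: potency for reduction of bacterial viability or growth.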 Format: functional, organism-based. A general note: The purpose of a counterscreen is to sort out artefacts and off-target activity.
In test [3] the test system is Streptococcus sp. 'group A'. As to the kind of experiment: growth inhibition of control SK(-) GAS strain, dose response, counter-screen for streptokinase expression inhibitor project, luminescence, kanamycin, BacTiterGlo, confirmation (AID 1900). It is filed as functional, organism-based.
Test [4] deals with T1, Streptokinase A (Streptococcus pyogenes serotype M1, UniProt P10520).
T1 sequence (P10520 whole entry): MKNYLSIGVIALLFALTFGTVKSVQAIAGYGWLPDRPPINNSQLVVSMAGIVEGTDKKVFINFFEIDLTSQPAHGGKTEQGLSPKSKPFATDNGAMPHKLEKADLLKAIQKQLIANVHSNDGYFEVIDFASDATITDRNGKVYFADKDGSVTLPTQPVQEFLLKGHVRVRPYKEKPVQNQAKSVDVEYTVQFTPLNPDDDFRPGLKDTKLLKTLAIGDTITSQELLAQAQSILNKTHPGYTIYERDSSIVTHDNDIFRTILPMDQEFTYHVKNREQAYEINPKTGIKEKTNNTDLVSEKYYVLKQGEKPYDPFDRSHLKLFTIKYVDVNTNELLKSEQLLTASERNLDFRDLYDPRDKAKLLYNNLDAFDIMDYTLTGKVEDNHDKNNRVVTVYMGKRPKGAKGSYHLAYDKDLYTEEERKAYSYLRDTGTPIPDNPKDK
As to the kind of experiment: S. pyogenes streptokinase expression inhibitors, potency, dose response, plasminogen activation absorbance, OD405 (AID 1914).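 Also: secreted streptokinase activity via plasminogen activation per viability signal from cell pellet.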 It is filed as functional, Streptococcus pyogenes M1 GAS.

Test [5] concerns Streptococcus. The test can be described thus: Luminescence Microorganism-Based Dose Response Follow up to Identify Compounds Cytotoxic to Streptococcus. [Related pubchem assays: 1677 (Project Summary), 1915, 1914, 1902 (Retest at Dose), 1900 (Counter Screen), 1662 (Primary HTS)]. Format: functional, organism-based.
In test [6] the target is T2, Leucine aminopeptidase (Plasmodium falciparum 3D7, UniProt Q8IL11).
T2 sequence (Q8IL11 whole entry): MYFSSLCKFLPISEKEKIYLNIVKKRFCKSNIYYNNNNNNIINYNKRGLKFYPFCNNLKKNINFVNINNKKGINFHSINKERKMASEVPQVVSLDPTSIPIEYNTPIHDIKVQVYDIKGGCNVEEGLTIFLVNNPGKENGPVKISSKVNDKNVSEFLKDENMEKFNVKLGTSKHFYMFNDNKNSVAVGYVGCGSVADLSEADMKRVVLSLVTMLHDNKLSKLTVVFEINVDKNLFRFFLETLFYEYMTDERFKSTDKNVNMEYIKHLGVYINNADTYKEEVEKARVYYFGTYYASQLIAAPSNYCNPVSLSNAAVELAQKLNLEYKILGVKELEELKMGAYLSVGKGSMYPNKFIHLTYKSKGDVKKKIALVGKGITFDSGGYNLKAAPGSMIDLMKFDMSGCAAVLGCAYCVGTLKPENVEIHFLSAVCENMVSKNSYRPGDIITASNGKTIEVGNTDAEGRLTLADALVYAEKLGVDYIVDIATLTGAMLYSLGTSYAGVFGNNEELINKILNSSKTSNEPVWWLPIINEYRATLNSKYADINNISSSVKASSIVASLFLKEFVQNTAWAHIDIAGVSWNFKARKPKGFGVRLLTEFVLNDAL
The test can be described thus: P. falciparum M17LAP inhibitors, primary screen, biochemical, fluorogenic H-Leu-NHMec substrate, 1536-well (AID 1619). It is filed as functional.

In test [7] the target is Peroxisome proliferator-activated receptor gamma/Nuclear receptor coactivator 3 (Homo sapiens, UniProt P37231). Format: functional.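 Also: agonist potency for raising coactivator recruitment to the receptor.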
Sequence of Peroxisome proliferator-activated receptor gamma/Nuclear receptor coactivator 3 (P37231 whole entry): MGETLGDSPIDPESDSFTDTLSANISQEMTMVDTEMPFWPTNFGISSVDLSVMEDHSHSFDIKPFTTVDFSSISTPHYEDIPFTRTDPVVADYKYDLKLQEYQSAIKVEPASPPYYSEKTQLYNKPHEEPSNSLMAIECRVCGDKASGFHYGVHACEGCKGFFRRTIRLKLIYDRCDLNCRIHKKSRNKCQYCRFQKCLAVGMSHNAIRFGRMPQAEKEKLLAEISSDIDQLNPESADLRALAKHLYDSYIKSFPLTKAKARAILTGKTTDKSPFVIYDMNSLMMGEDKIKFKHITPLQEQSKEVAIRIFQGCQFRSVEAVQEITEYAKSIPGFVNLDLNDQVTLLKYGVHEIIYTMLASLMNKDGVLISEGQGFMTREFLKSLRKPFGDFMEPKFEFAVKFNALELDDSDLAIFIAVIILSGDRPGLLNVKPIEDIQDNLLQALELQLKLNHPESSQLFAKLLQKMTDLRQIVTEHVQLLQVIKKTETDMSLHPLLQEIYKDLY
Sequence of Peroxisome proliferator-activated receptor gamma/Nuclear receptor coactivator 3 (Q9Y6Q9 whole entry, further chain): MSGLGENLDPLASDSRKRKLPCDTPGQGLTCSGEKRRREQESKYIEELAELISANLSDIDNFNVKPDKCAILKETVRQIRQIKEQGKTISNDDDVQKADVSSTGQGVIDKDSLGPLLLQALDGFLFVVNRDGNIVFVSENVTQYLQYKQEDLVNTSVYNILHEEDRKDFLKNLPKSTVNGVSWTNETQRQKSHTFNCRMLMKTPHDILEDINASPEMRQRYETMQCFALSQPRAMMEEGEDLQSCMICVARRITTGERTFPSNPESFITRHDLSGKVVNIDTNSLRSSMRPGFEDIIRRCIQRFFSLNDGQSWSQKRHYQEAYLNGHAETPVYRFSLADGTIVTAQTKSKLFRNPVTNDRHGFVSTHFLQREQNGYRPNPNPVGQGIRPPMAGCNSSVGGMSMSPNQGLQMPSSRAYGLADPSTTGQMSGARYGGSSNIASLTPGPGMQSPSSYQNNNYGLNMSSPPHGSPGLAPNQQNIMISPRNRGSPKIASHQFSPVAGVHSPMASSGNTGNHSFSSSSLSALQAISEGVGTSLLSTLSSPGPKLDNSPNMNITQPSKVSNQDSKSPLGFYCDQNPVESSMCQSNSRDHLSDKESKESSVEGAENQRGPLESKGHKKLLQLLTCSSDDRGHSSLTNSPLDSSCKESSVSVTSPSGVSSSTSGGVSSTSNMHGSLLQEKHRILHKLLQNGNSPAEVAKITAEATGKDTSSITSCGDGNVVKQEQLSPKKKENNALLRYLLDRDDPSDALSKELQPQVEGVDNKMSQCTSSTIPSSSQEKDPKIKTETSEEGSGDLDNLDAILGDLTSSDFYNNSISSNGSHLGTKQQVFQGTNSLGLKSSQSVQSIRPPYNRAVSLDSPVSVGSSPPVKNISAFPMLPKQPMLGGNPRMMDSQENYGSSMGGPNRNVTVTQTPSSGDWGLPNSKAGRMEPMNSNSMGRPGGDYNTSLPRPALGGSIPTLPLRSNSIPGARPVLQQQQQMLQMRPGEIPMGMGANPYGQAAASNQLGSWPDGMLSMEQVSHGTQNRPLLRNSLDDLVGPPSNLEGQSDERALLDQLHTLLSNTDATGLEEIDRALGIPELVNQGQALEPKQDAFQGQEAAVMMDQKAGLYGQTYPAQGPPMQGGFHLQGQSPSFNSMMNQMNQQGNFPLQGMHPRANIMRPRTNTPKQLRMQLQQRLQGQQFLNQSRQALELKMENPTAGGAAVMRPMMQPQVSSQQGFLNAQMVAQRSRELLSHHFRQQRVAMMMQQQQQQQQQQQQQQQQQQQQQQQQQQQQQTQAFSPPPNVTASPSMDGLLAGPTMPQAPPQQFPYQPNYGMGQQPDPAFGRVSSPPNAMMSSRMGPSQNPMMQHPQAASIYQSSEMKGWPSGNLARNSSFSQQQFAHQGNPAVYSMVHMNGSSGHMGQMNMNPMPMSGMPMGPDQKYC
In test [8] the target is Peroxisome proliferator-activated receptor gamma/Nuclear receptor coactivator 1 (Homo sapiens, UniProt P37231). Format: functional.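 Also: agonist potency as compounds enhance coactivator SRC-1 recruitment to PPARgamma.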
Sequence of Peroxisome proliferator-activated receptor gamma/Nuclear receptor coactivator 1 (P37231 whole entry): as the sequence (P37231 whole entry) above
Sequence of Peroxisome proliferator-activated receptor gamma/Nuclear receptor coactivator 1 (Q15788 whole entry, further chain): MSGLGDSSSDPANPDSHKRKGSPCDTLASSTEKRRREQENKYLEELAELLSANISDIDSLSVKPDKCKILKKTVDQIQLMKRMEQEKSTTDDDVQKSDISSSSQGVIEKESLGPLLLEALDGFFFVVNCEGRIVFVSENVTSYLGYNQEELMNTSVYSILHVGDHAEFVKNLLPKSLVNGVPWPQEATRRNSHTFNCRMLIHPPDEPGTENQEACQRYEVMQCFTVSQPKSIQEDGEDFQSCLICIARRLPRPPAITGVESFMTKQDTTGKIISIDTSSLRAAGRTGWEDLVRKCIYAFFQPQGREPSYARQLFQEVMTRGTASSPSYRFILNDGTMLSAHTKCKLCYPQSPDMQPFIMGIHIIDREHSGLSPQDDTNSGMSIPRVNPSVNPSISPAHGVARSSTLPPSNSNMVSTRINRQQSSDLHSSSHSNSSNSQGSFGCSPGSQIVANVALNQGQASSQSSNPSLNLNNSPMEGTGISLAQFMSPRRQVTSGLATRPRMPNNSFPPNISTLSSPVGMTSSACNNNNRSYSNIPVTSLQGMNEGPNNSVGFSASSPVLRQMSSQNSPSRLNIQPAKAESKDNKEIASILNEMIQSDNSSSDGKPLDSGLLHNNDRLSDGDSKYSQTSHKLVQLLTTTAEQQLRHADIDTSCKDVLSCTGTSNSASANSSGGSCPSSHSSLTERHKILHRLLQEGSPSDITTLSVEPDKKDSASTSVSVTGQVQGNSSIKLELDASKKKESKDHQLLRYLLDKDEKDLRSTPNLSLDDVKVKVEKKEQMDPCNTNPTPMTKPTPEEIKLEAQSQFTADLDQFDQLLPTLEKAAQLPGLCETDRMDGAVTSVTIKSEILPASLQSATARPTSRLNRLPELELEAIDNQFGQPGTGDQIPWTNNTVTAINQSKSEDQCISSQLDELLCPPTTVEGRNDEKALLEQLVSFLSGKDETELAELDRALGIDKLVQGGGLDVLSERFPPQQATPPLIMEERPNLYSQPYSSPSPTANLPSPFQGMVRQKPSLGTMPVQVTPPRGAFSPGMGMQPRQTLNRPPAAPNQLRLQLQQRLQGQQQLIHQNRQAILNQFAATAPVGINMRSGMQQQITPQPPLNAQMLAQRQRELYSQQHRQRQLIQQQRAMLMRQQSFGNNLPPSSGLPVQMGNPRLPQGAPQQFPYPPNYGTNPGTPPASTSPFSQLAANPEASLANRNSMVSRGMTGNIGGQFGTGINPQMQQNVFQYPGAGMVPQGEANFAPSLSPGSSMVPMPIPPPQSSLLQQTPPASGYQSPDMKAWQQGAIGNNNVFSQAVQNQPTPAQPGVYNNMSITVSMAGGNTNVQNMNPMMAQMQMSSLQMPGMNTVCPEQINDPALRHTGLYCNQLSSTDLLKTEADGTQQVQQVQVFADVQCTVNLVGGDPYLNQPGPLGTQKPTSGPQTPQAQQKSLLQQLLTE
In test [9] the target is Peroxisome proliferator-activated receptor gamma/Nuclear receptor coactivator 2 (Homo sapiens, UniProt P37231). It is filed as functional.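 Also: agonist potency for raising coactivator recruitment to the receptor.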

Sequence of Cytochrome P450 2D6 (P10635 whole entry): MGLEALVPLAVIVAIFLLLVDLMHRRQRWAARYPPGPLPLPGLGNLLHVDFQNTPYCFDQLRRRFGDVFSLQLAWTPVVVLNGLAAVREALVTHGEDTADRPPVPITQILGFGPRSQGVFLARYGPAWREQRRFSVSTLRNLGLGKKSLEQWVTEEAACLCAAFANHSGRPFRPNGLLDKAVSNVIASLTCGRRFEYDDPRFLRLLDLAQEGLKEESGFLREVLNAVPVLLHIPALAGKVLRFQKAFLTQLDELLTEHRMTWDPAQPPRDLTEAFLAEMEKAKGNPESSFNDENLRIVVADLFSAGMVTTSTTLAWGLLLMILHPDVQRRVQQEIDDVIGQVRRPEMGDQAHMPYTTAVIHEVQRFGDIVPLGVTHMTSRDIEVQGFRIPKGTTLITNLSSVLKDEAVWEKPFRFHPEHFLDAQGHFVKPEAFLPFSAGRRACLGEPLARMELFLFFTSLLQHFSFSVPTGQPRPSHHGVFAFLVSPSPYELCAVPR

Consider `CC(C)[C@@]1(NC(=O)[C@@H]2C[C@H]3c4cccc5[nH]cc(c45)C[C@@H]3N(C)C2)O[C@@]2(O)[C@H]3CCCN3C(=O)[C@@H](Cc3ccccc3)N2C1=O`, for which the AC50 in test [1] is 31.6 µM (inconclusive).

`Cc1ccc(-c2nn(CCC(=O)O)cc2/C=C\C(=O)c2ccc(Br)cc2)cc1`: the EC50 (in general, the concentration needed to bring the measured effect to its halfway point) was > 50 µM (not active) in test [2], 4.41 µM (active) in test [3], 2.33 µM (active) in test [4] and 25.4 µM (active) in [5]. For the same molecule, in test [6], the IC50 – broadly, the concentration at which inhibition is half-maximal – was 34 µM (active).

For the molecule `S=C(NCc1ccc(Cl)cc1Cl)Nc1ccccc1`, the EC50 in [7] is listed as 67.3 µM (not active); in test [8], > 79.4 µM (not active); in [9], > 79.4 µM (not active).

Regarding `O=C(CCN1C(=O)c2ccccc2C1=O)Nc1ccc(-c2nc3ccccc3o2)cc1`, the EC50 in test [7] is reported as > 79.4 µM (not active); in [8], 74.4 µM (not active); in test [9], 71.6 µM (not active).
